US20130029928A1 (priority 2010, published 2013)
Where two headings read alike, the source gives them in different places.

Assay: Phase I study CXR1002-001: plasma pharmacokinetics (LC-MS/MS)
Format: in vivo, human
Details: for concentration at 864 h: Time 864 hr (Day 37); for concentration at 24 h: Time 24 hr (Day 2); for concentration at 168 h: Time 168 hr (Day 8); for concentration at 192 h: Time 192 hr (Day 9); for concentration at 336 h: Time 336 hr (Day 15); for concentration at 360 h: Time 360 hr (Day 16); for concentration at 504 h: Time 504 hr (Day 22); for concentration at 528 h: Time 528 hr (Day 23); for concentration at 672 h: Time 672 hr (Day 29); for concentration at 696 h: Time 696 hr (Day 30)
Excerpt: PK samples, PD (fasting) samples, blood glucose, and blood triglyceride samples, were taken over a 6-week period.
Dose limiting toxicity (DLT) will be based on the toxicity assessments over the first 3-week period of the repeat dosing schedule. PK samples (single blood sample) were taken on the following basis: • Every 6 weeks during the repeat dosing phase • If dosing is interrupted or stopped, samples will be taken at intervals according to patient convenience • PK sampling for safety evaluation may take place at any time, as clinically indicated
Plasma samples were collected after the single 50 mg dose at the following timepoints: Pre-dose, and then 0.25, 0.5, 0.75, 1, 1.5, 2, 3, 4, 6, 24, 48, and 72 hours after administration and then once weekly at weeks 2, 3, 4, 5, and 6 (days 8, 15, 22, 29, and 36). For patients treated with the weekly repeat dose, plasma samples were collected at the following timepoints: Pre-dose and then 2, 3, 4 and 24 hours after administration for a total of 6 weeks. Thereafter a single sample was collected every 6 weeks for monitoring of exposure during long term treatment. Plasma samples were processed at site and stored at −80° C. prior to batch shipment to the analytical laboratory.

[1] = human, plasma, po, 1200 mg, Patient 036, 1200 mg weekly oral dose, read-out: Concentration (plasma level)
[2] = human, plasma, po, 1200 mg, Patient 037, 1200 mg weekly oral dose, read-out: Concentration (plasma level)
[3] = human, plasma, po, 1200 mg, Patient 038, 1200 mg weekly oral dose, read-out: Concentration (plasma level)

## O=C(O)C(F)(F)C(F)(F)C(F)(F)C(F)(F)C(F)(F)C(F)(F)C(F)(F)F [CXR1002]
[1]
  concentration at 844 h: 1230 µM
  concentration at 864 h: 1060 µM
[2]
  concentration at 2 h: 256 µM
  concentration at 3 h: 302 µM
  concentration at 4 h: 278 µM
  concentration at 24 h: 418 µM
  concentration at 168 h: 422 µM
  concentration at 170 h: 634 µM
  concentration at 171 h: 660 µM
  concentration at 172 h: 712 µM
  concentration at 192 h: 841 µM
  concentration at 336 h: 780 µM
  concentration at 338 h: 1050 µM
  concentration at 339 h: 1040 µM
  concentration at 340 h: 1030 µM
  concentration at 360 h: 1140 µM
  concentration at 504 h: 1100 µM
  concentration at 506 h: 1200 µM
  concentration at 507 h: 1220 µM
  concentration at 508 h: 1390 µM
  concentration at 528 h: 1390 µM
  concentration at 672 h: 1320 µM
  concentration at 674 h: 1460 µM
  concentration at 675 h: 1460 µM
  concentration at 676 h: 1450 µM
  concentration at 696 h: 1530 µM
[3]
  concentration at 2 h: 313 µM
  concentration at 3 h: 314 µM
  concentration at 4 h: 298 µM
  concentration at 24 h: 242 µM
  concentration at 168 h: 268 µM
  concentration at 170 h: 502 µM
  concentration at 171 h: 481 µM
  concentration at 172 h: 538 µM
  concentration at 192 h: 493 µM
  concentration at 336 h: 462 µM
  concentration at 338 h: 808 µM
  concentration at 339 h: 682 µM
  concentration at 340 h: 672 µM
  concentration at 360 h: 749 µM
  concentration at 504 h: 566 µM
  concentration at 506 h: 658 µM
  concentration at 507 h: 788 µM
  concentration at 508 h: 699 µM
  concentration at 528 h: 746 µM
  concentration at 672 h: 682 µM
  concentration at 674 h: 932 µM
  concentration at 675 h: 885 µM
  concentration at 676 h: 708 µM
  concentration at 696 h: 802 µM
  concentration at 844 h: 914 µM
  concentration at 864 h: 958 µM
human, plasma, po, 1200 mg, Patient 038, 1200 mg weekly oral dose, Time 840 hr (Day 36), read-out: Concentration (plasma level)
  concentration at 840 h: 687 µM
human, plasma, po, 1200 mg, Patient 038, 1200 mg weekly oral dose, Time 842 hr, read-out: Concentration (plasma level)
  concentration at 842 h: 895 µM
human, plasma, po, 1200 mg, Patient 038, 1200 mg weekly oral dose, Time 843 hr, read-out: Concentration (plasma level)
  concentration at 843 h: 955 µM
In vivo
  gender difference in exposure: no gender difference
Weekly dose
  accumulation: accumulates
Weekly repeat dose (Pharmacokinetic Summary)
  maximal blood level reached: 617 µM
